The target of data set [1] is T1, Androgen receptor (Homo sapiens, UniProt P10275).
T1 sequence (P10275 whole entry): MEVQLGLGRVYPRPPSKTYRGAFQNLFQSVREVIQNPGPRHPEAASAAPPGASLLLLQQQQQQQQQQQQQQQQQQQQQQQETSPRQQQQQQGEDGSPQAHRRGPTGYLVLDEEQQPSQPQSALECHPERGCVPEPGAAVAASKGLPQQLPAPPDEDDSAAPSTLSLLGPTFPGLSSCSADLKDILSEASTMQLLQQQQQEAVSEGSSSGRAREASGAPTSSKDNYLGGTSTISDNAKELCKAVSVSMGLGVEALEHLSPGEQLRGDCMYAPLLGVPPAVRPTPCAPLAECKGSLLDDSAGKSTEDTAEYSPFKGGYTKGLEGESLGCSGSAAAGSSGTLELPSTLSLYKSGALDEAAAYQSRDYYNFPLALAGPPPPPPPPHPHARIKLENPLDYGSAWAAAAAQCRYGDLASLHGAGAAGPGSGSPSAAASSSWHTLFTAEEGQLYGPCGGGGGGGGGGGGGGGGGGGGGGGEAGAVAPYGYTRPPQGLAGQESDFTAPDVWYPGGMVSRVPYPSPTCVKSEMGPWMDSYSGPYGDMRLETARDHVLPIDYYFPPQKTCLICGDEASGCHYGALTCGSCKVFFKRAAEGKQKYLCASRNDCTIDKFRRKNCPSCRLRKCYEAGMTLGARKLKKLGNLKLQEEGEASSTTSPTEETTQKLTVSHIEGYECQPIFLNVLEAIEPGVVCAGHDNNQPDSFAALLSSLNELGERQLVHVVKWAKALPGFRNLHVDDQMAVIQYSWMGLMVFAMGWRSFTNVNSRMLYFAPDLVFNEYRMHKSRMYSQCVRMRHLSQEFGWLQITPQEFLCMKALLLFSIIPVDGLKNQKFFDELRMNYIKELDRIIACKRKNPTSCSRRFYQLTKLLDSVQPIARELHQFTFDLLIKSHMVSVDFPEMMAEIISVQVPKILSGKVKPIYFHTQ
Put plainly: Antagonist activity at androgen receptor (unknown origin) in human LNCap-ARR2PB-eGFP cells by measuring fluorescence intensity measured after 3 days by transcriptional assay. The format is cell-based.

Data set [2] relates to LNCaP. Put plainly: Cytotoxicity against human LNCAP cells assessed as inhibition of cell proliferation by MTT assay. The format is functional, cell-based. On the technique in general: Tetrazolium dyes change colour on reduction, which living cells bring about.
Data set [3] can be described thus: Cytotoxicity against human Chang liver cells assessed as inhibition of cell proliferation by MTT assay. It counts as toxicity, cell-based.
The nature of data set [4]: Cytotoxicity against human GES1 cells assessed as inhibition of cell proliferation by MTT assay. The format is toxicity, cell-based.
Data set [5] is described as follows: Inhibition of PSA secretion in human LNCaP ARR2PB-eGFP cells measured after 3 days by immuno assay. It counts as functional, cell-based. The conditions noted are these: 72 h.
A short description of data set [6]: Antagonist activity at mineralocorticoid receptor (unknown origin) transfected in PC-3 cells assessed as inhibition of […]-stimulated transcriptional activity after 3 days by dual luciferase reporter assay. The following applies: Homo sapiens, PC-3, 72 h. The format is cell-based. For orientation: Reporter assays use an easily measured gene product as a stand-in for the process of interest.

In data set [7] the target is T1, Androgen receptor.
Data set [8] addresses T2, Androgen receptor (Homo sapiens, UniProt P10275, F877L). Put plainly: Antagonist activity at androgen receptor F877L mutant (unknown origin) expressed in PC-3 cells assessed as inhibition of transcriptional activity measured after 24 hrs by dual luciferase assay. The format is cell-based.
The target of data set [9] is T3, Androgen receptor (Homo sapiens, UniProt P10275, F877L/T878A). The data set can be described thus: Antagonist activity at androgen receptor F877L/T877A dual mutant (unknown origin) expressed in PC-3 cells assessed as inhibition of transcriptional activity measured after 24 hrs by dual luciferase assay. The format is cell-based.
T3 sequence (P10275 whole entry F877L/T878A): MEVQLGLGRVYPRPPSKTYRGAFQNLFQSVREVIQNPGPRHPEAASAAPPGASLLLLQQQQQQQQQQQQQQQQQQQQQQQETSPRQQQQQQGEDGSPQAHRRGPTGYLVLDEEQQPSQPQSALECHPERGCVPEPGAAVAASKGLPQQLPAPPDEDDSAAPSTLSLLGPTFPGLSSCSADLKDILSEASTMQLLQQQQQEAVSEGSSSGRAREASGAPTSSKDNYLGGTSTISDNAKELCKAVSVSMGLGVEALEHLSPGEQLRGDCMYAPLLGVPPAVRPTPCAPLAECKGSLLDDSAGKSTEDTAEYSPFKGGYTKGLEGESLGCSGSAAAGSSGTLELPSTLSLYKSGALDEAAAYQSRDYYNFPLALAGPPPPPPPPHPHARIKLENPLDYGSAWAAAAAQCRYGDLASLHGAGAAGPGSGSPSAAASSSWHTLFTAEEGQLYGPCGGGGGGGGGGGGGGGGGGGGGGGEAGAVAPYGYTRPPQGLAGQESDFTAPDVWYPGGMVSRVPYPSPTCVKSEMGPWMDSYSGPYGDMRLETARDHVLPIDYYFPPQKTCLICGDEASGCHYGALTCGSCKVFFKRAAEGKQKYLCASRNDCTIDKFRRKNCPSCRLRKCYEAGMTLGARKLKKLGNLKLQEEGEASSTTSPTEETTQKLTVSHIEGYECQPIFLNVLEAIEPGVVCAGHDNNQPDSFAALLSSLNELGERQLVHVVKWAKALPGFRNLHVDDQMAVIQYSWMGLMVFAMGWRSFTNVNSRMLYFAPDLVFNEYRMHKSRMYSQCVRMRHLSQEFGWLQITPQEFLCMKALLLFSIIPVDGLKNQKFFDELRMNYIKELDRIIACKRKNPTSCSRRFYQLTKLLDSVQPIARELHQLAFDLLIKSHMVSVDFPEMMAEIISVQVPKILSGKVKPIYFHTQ
Data set [10] deals with T2, Androgen receptor. The data set can be described thus: Antagonist activity at androgen receptor F877L mutant in human PC-3 cells assessed as inhibition of transcriptional activity measured after 24 hrs by luminescence based microplate reader assay. The format is cell-based.
Data set [11] deals with T3, Androgen receptor. Put plainly: Antagonist activity at androgen receptor F876L/T877A mutant in human PC-3 cells assessed as inhibition of transcriptional activity measured after 24 hrs by luminescence based microplate reader assay. It counts as cell-based.
Data set [12] is described as follows: Antagonist activity at androgen receptor T878G mutant (unknown origin) expressed in PC-3 cells assessed as inhibition of transcriptional activity measured after 24 hrs by dual luciferase assay. It counts as cell-based. The following applies: Homo sapiens, PC-3, 24 h.
Data set [13] concerns the target T4, Androgen receptor (Homo sapiens) (UniProt P10275).
T4 sequence (whole entry): T1 sequence (P10275 whole entry)
The data set can be described thus: Antagonist activity at human AR AF2 assessed as inhibition of fluorescent-labelled D11-FxxLF peptide Co-activator to receptor by TR-FRET assay. The following applies: filed as antagonist. For orientation: In TR-FRET formats the signal depends on donor and acceptor labels being close together.

Data set [14] has as its system LNCaP. Put plainly: Antitumor activity against human LNCAP cells xenografted in CB17-SCID mouse model assessed as inhibition of tumor growth at 100 mg/kg/day, po measured upto 4 weeks. It counts as functional, organism-based.
Data set [15] concerns LNCaP. The data set can be described thus: Antitumor activity against human LNCAP cells xenografted in CB17-SCID mouse model assessed as inhibition of tumor growth at 40 mg/kg/day, po measured upto 4 weeks. It counts as functional, organism-based.
The nature of data set [16]: Toxicity in CB17 SCID mouse xenografted with human LNCAP cells assessed as body weight loss at 100 mg/kg/day,po measured upto 4 weeks. It counts as organism-based. The following applies: in vivo, 672 h.

The source made the active and inactive calls. The calls are words filed in the database; no cut-off is given here. Bounds are passed on as bounds.

As a reminder, the IC50 is the concentration that inhibits the measured activity by half. By Kd is commonly meant the constant that tells how readily two partners part at equilibrium. A low value points to a tighter complex.

T2 sequence (P10275 whole entry F877L): as the sequence (P10275 whole entry F877L/T878A) above, with A878T counted along it

In the case of `N#Cc1ccc(-n2ccc(CC(=O)Nc3ccc(F)nc3)n2)cc1Cl`, the concentration for half-maximal inhibition (IC50) against Androgen receptor [1] is 0.069 µM; in the data set with LNCaP [2], 6.23 µM; in data set [3], greater than 1000 µM; in data set [4], greater than 1000 µM; in data set [5], 0.89 µM; in data set [6] it was 5.54 µM. Further, the IC50 at Androgen receptor [8] turned out to be 0.46 µM; on Androgen receptor [9], 0.27 µM; at Androgen receptor [10], 0.17 µM; at Androgen receptor [11], 0.27 µM; in data set [12] it was 0.045 µM. The compound further displayed a dissociation constant (Kd) on Androgen receptor [7] of 20.5 µM. Further, the outcome (in data set [13]; in the data set with LNCaP [14]; with LNCaP [15]) was Active. The Activity result in data set [16] is “Non-Toxic”.
